Test results from patent US7029870B1 (priority 1997, dated 2006).

Columns and labels:
α2/β1/ε GABAA receptors [1] = molecular target: T1, α2/β1/ε GABAA receptors (Homo sapiens, UniProt P18505+P47869+P78334, S102A); conditions: α2/β1/ε subunits
T1 sequence (P47869 29-451): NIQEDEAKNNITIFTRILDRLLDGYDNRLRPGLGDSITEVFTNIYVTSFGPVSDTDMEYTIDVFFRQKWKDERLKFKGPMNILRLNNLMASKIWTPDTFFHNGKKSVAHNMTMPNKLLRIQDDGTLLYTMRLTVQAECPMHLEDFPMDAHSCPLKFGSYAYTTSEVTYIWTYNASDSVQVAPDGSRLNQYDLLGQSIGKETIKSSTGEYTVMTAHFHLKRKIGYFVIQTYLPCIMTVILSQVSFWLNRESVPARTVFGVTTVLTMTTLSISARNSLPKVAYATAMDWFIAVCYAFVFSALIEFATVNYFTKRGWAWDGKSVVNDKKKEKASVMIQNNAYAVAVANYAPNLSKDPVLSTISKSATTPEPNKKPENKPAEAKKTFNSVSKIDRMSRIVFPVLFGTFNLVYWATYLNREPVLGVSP
T1 sequence (P18505 26-474): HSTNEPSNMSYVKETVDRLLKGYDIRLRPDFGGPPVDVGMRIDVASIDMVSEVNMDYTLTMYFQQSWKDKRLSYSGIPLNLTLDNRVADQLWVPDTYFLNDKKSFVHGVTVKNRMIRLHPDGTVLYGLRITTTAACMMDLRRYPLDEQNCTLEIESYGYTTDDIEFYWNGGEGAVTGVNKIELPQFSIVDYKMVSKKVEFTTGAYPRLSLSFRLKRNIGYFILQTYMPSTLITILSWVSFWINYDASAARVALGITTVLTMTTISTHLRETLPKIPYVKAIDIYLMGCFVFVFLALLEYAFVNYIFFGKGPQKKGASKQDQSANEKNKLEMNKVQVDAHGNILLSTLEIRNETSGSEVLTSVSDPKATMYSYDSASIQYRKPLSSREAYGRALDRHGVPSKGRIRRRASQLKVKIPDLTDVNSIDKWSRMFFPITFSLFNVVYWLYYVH
T1 sequence (P78334 23-506 S102A): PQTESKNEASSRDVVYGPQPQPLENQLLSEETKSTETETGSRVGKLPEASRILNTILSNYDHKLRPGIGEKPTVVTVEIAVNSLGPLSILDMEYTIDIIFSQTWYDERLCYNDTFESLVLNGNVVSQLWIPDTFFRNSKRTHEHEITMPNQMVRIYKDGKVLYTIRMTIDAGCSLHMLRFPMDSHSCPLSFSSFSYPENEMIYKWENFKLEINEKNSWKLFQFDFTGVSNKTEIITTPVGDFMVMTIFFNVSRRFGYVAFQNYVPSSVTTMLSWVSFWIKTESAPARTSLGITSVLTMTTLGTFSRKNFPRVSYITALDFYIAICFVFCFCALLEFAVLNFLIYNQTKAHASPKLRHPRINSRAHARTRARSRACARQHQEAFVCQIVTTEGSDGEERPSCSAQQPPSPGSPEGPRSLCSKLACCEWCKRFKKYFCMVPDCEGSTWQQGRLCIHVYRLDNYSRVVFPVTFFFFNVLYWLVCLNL

α2/β1/ε GABAA receptors [2] = molecular target: T1, α2/β1/ε GABAA receptors; format: cell-based; design: The ε-subunit open reading frame was amplified from a hippocampal cDNA library; expressed in transfected cells; host or cells: HEK-293 (transient, calcium phosphate); conditions: for Block of GABA-evoked currents: inhibitor 10 μM, bath applied
α/β/ε GABAA receptors = assay: Benzodiazepine radioligand binding to membranes of cells transfected with α-, β- and ε-subunits; design: species or system human, rat; conditions: radioligand 1–50 nM
α1/β3/ε GABAA receptors = molecular target: T2, α1/β3/ε GABAA receptors (UniProt P28472+P62813+P78334, S102A); design: species or system rat α1, human β3, human ε; conditions: α1/β3/ε subunits; read-out: Maximal stimulation of [3H]muscimol binding to cell membranes
T2 construct: The ε-subunit open reading frame was amplified from a hippocampal cDNA library; expressed in transfected cells; host or cells: HEK-293 (transient, calcium phosphate); membranes prepared from the transfected cells

[3] = system: α/β/ε GABAA receptors (α2/β1/ε or α1/β3/ε)

5α-pregnan-3α-ol-20-one [pregnanolone]
Effect on [35S]TBPS binding (α2/β1/ε GABAA receptors [1]): no stimulatory phase
Effect on submaximal GABA-activated currents (α2/β1/ε GABAA receptors [2]; concentrations up to 100 nM, α2/β1/ε): No significant effects
Potentiation of submaximal GABA-activated currents (α2/β1/ε GABAA receptors [2]; high concentrations of the steroid, α2/β1/ε): up to 73%

NCCCC(=O)O [GABA, γ-aminobutyric acid]
Reversal potential of GABA-evoked currents (α2/β1/ε GABAA receptors [2]; 100 μM GABA, α2/β1/ε, linear fit): 5.7 mV
Hill slope of GABA concentration-response (α2/β1/ε GABAA receptors [2]; α2/β1/ε cDNAs): 1.1

CCOC(=O)c1ncn2c1CN(C)C(=O)c1cc(F)ccc1-2 [[^3H]flumazenil, flumazenil]
Binding to transfected cell membranes (α/β/ε GABAA receptors): did not bind

CN1C(=O)CN=C(c2ccccc2F)c2cc([N+](=O)[O-])ccc21 [[^3H]flunitrazepam, flunitrazepam]
Binding to transfected cell membranes (α/β/ε GABAA receptors): did not bind

CN1CCc2cc3c(cc2[C@H]1[C@@H]1OC(=O)c2c1ccc1c2OCO1)OCO3 [bicuculline]
Block of GABA-evoked currents (α2/β1/ε GABAA receptors [2]; α2/β1/ε): 73.6±9.3%

CCCC(C)C1(CC)C(=O)NC(=O)NC1=O (stereo not drawn) [pentobarbital]
Emax (α1/β3/ε GABAA receptors): < 15%
Enhancement of GABA-evoked currents [3]: blocked the ability

CC(C)c1cccc(C(C)C)c1O [propofol, 2,6-diisopropylphenol]
Enhancement of GABA-evoked currents [3]: blocked the ability

picrotoxin
Block of GABA-evoked currents (α2/β1/ε GABAA receptors [2]; α2/β1/ε): 82.5±7.4%
